Experimental data from patent publication US20260273020A1, “OBESTATIN FOR USE AS ANTINEOPLASTIC AGENT IN THE TREATMENT OF PANCREATIC CANCER” (SERVIZO GALEGO DE SAÚDE, priority 2023, published 2026).

Columns and labels:
[1] = system: PANC1 cells; experiment: Proliferation assay, cell counting under chronic obestatin treatment; assay type: cell-based, human
Experimental: PANC1 cell line was obtained from ECACC (87092802; ECACC, Wiltshire, UK). RWP1 and BxPC3 human pancreatic cancer cell lines were kindly provided by FX Real (Epithelial Carcinogenesis Group, Cancer Cell Biology Programme, Spanish National Cancer Research Centre-CNIO, Madrid, ES). In brief, PANC1 cells were cultured in DMEM (supplemented with 4.5 g/L glucose, 10% FBS, and 1% penicillin/streptomycin), RWP1 and BxPC3 cell lines were maintained in RPMI (supplemented with 10% FBS and 1% penicillin/streptomycin) and incubated in an atmosphere containing 5% CO2 at 37° C. These cells were periodically tested and resulted negative for mycoplasma contamination.
For the analysis of proliferation the cells were seeded on 12-well plates at an amount of 50,000 cells per well and maintained for 24 h in culture media (see above) to allow attachment. The medium was completely removed and replaced with serum-free media for additional 24 h. Then, cells were treated or not with different doses of obestatin: mouse obestatin (corresponding to SEQ ID NO: 4) for KPC FC1242 and human obestatin (corresponding to SEQ ID NO: 1) for PANC1, RWP1 and BxPC3. The following treatments were used: 0% FBS as negative control, 10% FBS as positive control, 100 nM obestatin, 200 nM obestatin, 100 nM obestatin+10% FBS, and 200 nM obestatin+10% FBS. These treatments were administered every 24 h for three days. Twenty-four h after the last treatment, the cells were trypsinized and manually counted with a Neubauer camera.
The total cells were calculated using the following equations counting 10 squares: […]
In all cases, each experiment point was replicated eight times.

[2] = system: pERK1/2(T202/Y204), ERK1/2, pAkt(S473), Akt; experiment: Immunoblot of tumoral pancreatic tissue: ERK1/2 and Akt; assay type: in vivo, C57BL/6J mice
Experimental: FIG. 4. (A) Analysis and quantification of Ki67 positive proliferative cells by immunohistochemistry in the pancreatic tumors of C57BL/6J mice (n=4) orthotopically injected with KPC FC1242 cells and treated with vehicle [NaCl, 0.9% (w/v)] or obestatin (500 nmol/Kg/72 h). Magnification: 4×. (B) Immunoblot analysis of pERK1/2(T202/Y204), ERK1/2, pAkt(S473), and Akt in tumoral pancreatic tissue. Results are expressed as fold of control of the non-treated injected mice [control; mean±SE (*, P<0.05)].
Mice were weighed at set times over the 15-day period. The sterilized surgical material was used for the tissue extraction. Pancreases and muscles were carefully removed from each animal minimizing contamination with surrounding tissue or mouse hair. Pancreases and muscles were weighed. The skeletal muscles selected were: tibialis anterior, TA; extensor digitorum longus, EDL; gastrocnemius, GAST; soleus, SOL; and diaphragm, DIA. Pancreases were also measured with a scale (cm) and pictures were taken. • Histology—Pancreas samples for histology were fixed in 4% paraformaldehyde in PBS at room temperature overnight. After fixation, samples were dehydrated and embedded in paraffin blocks. For this study, 3-micron sections were cut from each block and placed on pre-cleaned slides (Thermo Fisher Scientific, Waltham, MA, USA). […] The lysates were clarified by centrifugation (18,000×g, 15 min, 4° C.), and the protein concentration was quantified by the Quantipro™ BCA assay kit (Sigma-Aldrich, St. Louis, MO, US).
Tissues were disrupted and homogenized in ice-cold lysis buffer [50 mM Tris-HCl pH 7.2, 150 mM NaCl, 1 mM EDTA, 1% (v/v) NP-40, 0.25% (w/v) Na-deoxycholate, protease inhibitor cocktail (PIC; 1:100; Sigma Chemical Co., St. Luis, MO, US), phosphatase inhibitor cocktail (PHIC; 1:100; Sigma Chemical Co., St. Luis, MO, US)] with 5 mm stainless steel beads using a TissueLyser (Qiagen, Hilden, DE) at 30 Hz for 3 min. […] Supernatants were recovered and the protein was quantified with BCA Protein Assay Kit (Thermo Fisher Scientific, Rockford, IL, US). […]

[3] = Pancreatic cancer associated cachexia: skeletal muscle weight, food intake; assay type: in vivo, C57BL/6J mice; conditions: tumour-bearing mice
Experimental: FIG. 9. Analysis of obestatin action on skeletal muscle cachexia of C57BL/6J mice (n=4) orthotopically injected with KPC FC1242 cells and treated with vehicle [NaCl, 0.9% (w/v)] or obestatin (500 nmol/Kg/72 h). Tibialis anterior (TA), gastrocnemius (GA), soleus (SOL), extensor digitorum longus (EDL) and diaphragm (DIA) muscles were collected and weighted at day 12 after tumour injection. Results are expressed as the percentage of the weight recovery of the muscle of obestatin-treated mice related to vehicle treated mice (mean±SE).
In vivo experiments were carried out in C57BL/6 mice, obtained from the Central Animal Facility of the University of Santiago de Compostela. Male C57BL/6 mice, weighing 25 g on arrival, were housed four per cage at a constant temperature of 22±2° C. and at a 12 h light/dark cycle. The mice were kept for 5 days for acclimation, with free access to water, and a standard mice chow with a composition of 5.5% fat, 23% protein and 70% carbohydrate (SAFE-Panlab, Spain).
The mice were assigned to the different groups (n=4/group) and treated for five days with: 1) healthy control, 2) tumour+vehicle [NaCl, 0.9% (w/v)], and 3) tumour+obestatin (500 nmol/Kg/72 h). Mice without tumoral cells treatment were utilized as healthy controls.
Mice were weighed at set times over the 15-day period. The sterilized surgical material was used for the tissue extraction. Pancreases and muscles were carefully removed from each animal minimizing contamination with surrounding tissue or mouse hair. Pancreases and muscles were weighed. The skeletal muscles selected were: tibialis anterior, TA; extensor digitorum longus, EDL; gastrocnemius, GAST; soleus, SOL; and diaphragm, DIA. Pancreases were also measured with a scale (cm) and pictures were taken. • Histology—Pancreas samples for histology were fixed in 4% paraformaldehyde in PBS at room temperature overnight. After fixation, samples were dehydrated and embedded in paraffin blocks. For this study, 3-micron sections were cut from each block and placed on pre-cleaned slides (Thermo Fisher Scientific, Waltham, MA, USA). The sectioned tissue slides were covered with a thin layer of paraffin, stoked at 60° C. for 1 hour and stored protected from light at room temperature to preserve the antigenicity of sections. • Immunoblot—For immunoblot analysis, pancreases were immediately frozen in dry ice and stored at −80° C. until use. Tissues were homogenized using a TissueLyser II tissue homogenizer (Qiagen, Hilden, DE), in 200 μL of RIPA lysis buffer at 30 Hz for 3 min. The lysates were clarified by centrifugation (18,000×g, 15 min, 4° C.), and the protein concentration was quantified by the Quantipro™ BCA assay kit (Sigma-Aldrich, St. Louis, MO, US).

[4] = obestatin 500 nmol/Kg/72 h, referenced to non-treated animals

Substance: obestatin
- effect on FBS-mediated proliferation ([1]; 100 nM obestatin+10% FBS each 24 h for 72 h): significant inhibitory effect
- proliferation (number of cells) ([1]; human obestatin (SEQ ID NO: 1) 100 nM each 24 h for 72 h, serum-free): does not activate the proliferation
- total expressions of ERK and AKT ([2]; Western blotting): unchanged
- Akt activation augmented, pAkt(S473) [2, 4]: 369.5±100.1%
- reduction in ERK1/2 activation, pERK1/2(T202/Y204) [2, 4]: ~50%
- effect on skeletal muscle weight loss, diaphragm (DIA) ([3]; obestatin 500 nmol/Kg/72 h): No effect
- reduction of skeletal muscle weight loss (weight recovery vs vehicle treated mice), extensor digitorum longus (EDL) ([3]; obestatin 500 nmol/Kg/72 h): 62.2±8.1%
- reduction of skeletal muscle weight loss (weight recovery vs vehicle treated mice), gastrocnemius (GAS) ([3]; obestatin 500 nmol/Kg/72 h): 10.6±3.2%
- reduction of skeletal muscle weight loss (weight recovery vs vehicle treated mice), soleus (SOL) ([3]; obestatin 500 nmol/Kg/72 h): 33.0±7.3%
- reduction of skeletal muscle weight loss (weight recovery vs vehicle treated mice), tibialis anterior (TA) ([3]; obestatin 500 nmol/Kg/72 h): 30.8±6.1%
- food intake ([3]; obestatin treatment): maintaining food intake
